The target in one assay is BRD4 (BDI_K57-E168) (Homo sapiens (Human), UniProt O60885). The assay is described as follows: TR-FRET bromodomain binding assay, BRD4 first bromodomain. To be noted: His-tagged BD1, Alexa647-labeled probe 100 nM. The procedure:
(§1) A time-resolved fluorescence resonance energy transfer (TR-FRET) assay was used to determine the affinities of compounds of the Examples listed in Table 1 for each bromodomain of BRD4. His-tagged first (BD1: amino acids K57-E168) and second (BD2: amino acids E352-E168) bromodomains of BRD4 were expressed and purified. An Alexa647-labeled BET-inhibitor was used as the fluorescent probe in the assay.
(§2) Compound dilution series were prepared in DMSO via a 3-fold serial dilution from 2.5 mM to 42 nM. Compounds were then diluted 6:100 in assay buffer (20 mM Sodium Phosphate, pH 6.0, 50 mM NaCl, 1 mM Ethylenediaminetetraacetic acid disodium salt dihydrate, 0.01% Triton X-100, 1 mM DL-Dithiothreitol) to yield 3× working solutions. Six microliters (μL) of the working solution was then transferred to white, low-volume assay plates (Costar #3673). A 1.5× assay mixture containing His-tagged bromodomain, Europium-conjugated anti-His antibody (Invitrogen PV5596) and the Alexa-647-conjugated probe molecule was also prepared. Twelve μL of this solution were added to the assay plate to reach a final volume of 18 μL. The final concentration of 1× assay buffer contains 2% DMSO, 50 μM-0.85 nM compound, 8 nM His-tagged bromodomain, 1 nM Europium-conjugated anti-His-tag antibody and 100 nM or 30 nM probe (for BDI or BDII, respectively). After a one-hour incubation at room temperature, TR-FRET ratios were determined using an Envision multilabel plate reader (Ex 340, Em […]).
(§3) TR-FRET data were normalized to the means of 24 no-compound controls (“high”) and 8 controls containing 1 μM un-labeled probe (“low”). Percent inhibition was plotted as a function of compound concentration and the data were fit with the 4 parameter logistic equation to obtain IC50s. Inhibition constants (Ki) were calculated from the IC50s, probe Kd and probe concentration. Typical Z′ values were between 0.65 and 0.75. The minimum significant ratio was determined to evaluate assay reproducibility (Eastwood et al., (2006) J Biomol Screen, 11: 253-261). The MSR was determined to be 2.03 for BDI and 1.93 for BDII, and a moving MSR (last six run MSR overtime) for both BDI and BDII was typically <3.
(In general: TR-FRET usually uses a lanthanide donor and a delayed reading to cut background.)

The next assay has as its target BRD4 (BDII_E352-M457) (Homo sapiens (Human), UniProt O60885). The assay is described as follows: TR-FRET bromodomain binding assay, BRD4 second bromodomain. Conditions: His-tagged BD2, Alexa647-labeled probe 30 nM. The procedure: as §1, §2, §3

By Ki is commonly meant a dissociation constant, usually derived from enzyme kinetics or from competition with a known ligand. Low values mean a stronger hold on the target, high ones a looser hold on the target. Regarding `Cc1cc(-c2ccc(-c3cn(C)c(=O)c4[nH]ccc34)c(OCC3CC3)c2)[nH]n1` [Example 1, 4-[2-(cyclopropylmethoxy)-4-(3-methyl-1H-pyrazol-5-yl)phenyl]-6-methyl-1,6-dihydro-7H-pyrrolo[2,3-c]pyridin-7-one], the Ki worked out at 26 nM at BRD4 (BDI_K57-E168) and 55 nM on BRD4 (BDII_E352-M457).
In the case of `CCS(=O)(=O)Nc1cc(-c2cn(C)c(=O)c3[nH]ccc23)c(Oc2ccc(F)cc2F)cc1CN1CCCCC1` [Example 3, N-[4-(2,4-difluorophenoxy)-5-(6-methyl-7-oxo-6,7-dihydro-1H-pyrrolo[2,3-c]pyridin-4-yl)-2-(piperidin-1-ylmethyl)phenyl]ethanesulfonamide], the Ki on BRD4 (BDI_K57-E168) amounted to 88 nM; at BRD4 (BDII_E352-M457), 2.8 nM.
Turning to `CCS(=O)(=O)Nc1cc(-c2cn(C)c(=O)c3[nH]ccc23)c(Oc2ccc(F)cc2F)cc1CN1CCOCC1` [Example 4, N-[4-(2,4-difluorophenoxy)-5-(6-methyl-7-oxo-6,7-dihydro-1H-pyrrolo[2,3-c]pyridin-4-yl)-2-(morpholin-4-ylmethyl)phenyl]ethanesulfonamide], the Ki came to 11 nM at BRD4 (BDI_K57-E168) and 1.7 nM on BRD4 (BDII_E352-M457).
As to `CCS(=O)(=O)Nc1cc(-c2cn(C)c(=O)c3[nH]ccc23)c(Oc2ccc(F)cc2F)cc1CN1CCN(C)CC1` [Example 5, N-{4-(2,4-difluorophenoxy)-5-(6-methyl-7-oxo-6,7-dihydro-1H-pyrrolo[2,3-c]pyridin-4-yl)-2-[(4-methylpiperazin-1-yl)methyl]phenyl}ethanesulfonamide], the Ki at BRD4 (BDI_K57-E168) was determined as 16 nM; at BRD4 (BDII_E352-M457), 1.7 nM.
Take `CCS(=O)(=O)Nc1cc(-c2cn(C)c(=O)c3[nH]ccc23)c(Oc2ccc(F)cc2F)cc1CO` [Example 6, N-[4-(2,4-difluorophenoxy)-2-(hydroxymethyl)-5-(6-methyl-7-oxo-6,7-dihydro-1H-pyrrolo[2,3-c]pyridin-4-yl)phenyl]ethanesulfonamide]: the values for the Ki on BRD4 (BDI_K57-E168) and on BRD4 (BDII_E352-M457) were 14 nM and 2 nM, respectively.
`CCS(=O)(=O)Nc1cc(-c2cn(C)c(=O)c3[nH]ccc23)c(Oc2ccc(F)cc2F)cc1CNC1CCCC1` [Example 7, N-{2-[(cyclopentylamino)methyl]-4-(2,4-difluorophenoxy)-5-(6-methyl-7-oxo-6,7-dihydro-1H-pyrrolo[2,3-c]pyridin-4-yl)phenyl}ethanesulfonamide]: the Ki on BRD4 (BDI_K57-E168) came to 32 nM; at BRD4 (BDII_E352-M457) it was 6.9 nM.
The matching figures for `CCS(=O)(=O)Nc1cc(-c2cn(C)c(=O)c3[nH]ccc23)c(Oc2ccc(F)cc2F)cc1C(N)=O` [Example 8, 5-(2,4-difluorophenoxy)-2-[(ethylsulfonyl)amino]-4-(6-methyl-7-oxo-6,7-dihydro-1H-pyrrolo[2,3-c]pyridin-4-yl)benzamide]: 1.5 nM and 1.8 nM.
Take `CCS(=O)(=O)Nc1cc(-c2cn(C)c(=O)c3[nH]ccc23)c(Oc2ccc(F)cc2F)cc1C(=O)NC1CCCC1` [Example 9, N-cyclopentyl-5-(2,4-difluorophenoxy)-2-[(ethylsulfonyl)amino]-4-(6-methyl-7-oxo-6,7-dihydro-1H-pyrrolo[2,3-c]pyridin-4-yl)benzamide]: the results for the Ki on BRD4 (BDI_K57-E168) and on BRD4 (BDII_E352-M457) were 1.7 nM and 2 nM, respectively.
For `CCS(=O)(=O)Nc1cc(-c2cn(C)c(=O)c3[nH]ccc23)c(Oc2ccc(F)cc2F)cc1C(=O)N(C)C` [Example 10, 5-(2,4-difluorophenoxy)-2-[(ethylsulfonyl)amino]-N,N-dimethyl-4-(6-methyl-7-oxo-6,7-dihydro-1H-pyrrolo[2,3-c]pyridin-4-yl)benzamide], the Ki at BRD4 (BDI_K57-E168) was 72 nM; at BRD4 (BDII_E352-M457), 8.3 nM.
For the molecule `CCS(=O)(=O)Nc1cc(-c2cn(C)c(=O)c3[nH]ccc23)c(Oc2ccc(F)cc2F)cc1C(=O)O` [Example 11, 5-(2,4-difluorophenoxy)-2-[(ethylsulfonyl)amino]-4-(6-methyl-7-oxo-6,7-dihydro-1H-pyrrolo[2,3-c]pyridin-4-yl)benzoic acid], the Ki at BRD4 (BDI_K57-E168) stood at 0.8 nM; on BRD4 (BDII_E352-M457) it was 1 nM.
For the molecule `CCS(=O)(=O)Nc1cc(-c2cn(C)c(=O)c3[nH]ccc23)c(Oc2ccc(F)cc2F)cc1C(=O)NC1CCOCC1` [Example 12, 5-(2,4-difluorophenoxy)-2-[(ethylsulfonyl)amino]-4-(6-methyl-7-oxo-6,7-dihydro-1H-pyrrolo[2,3-c]pyridin-4-yl)-N-(tetrahydro-2H-pyran-4-yl)benzamide], the Ki at BRD4 (BDI_K57-E168) was determined as 1.8 nM; at BRD4 (BDII_E352-M457), 1.6 nM.
Consider `CCS(=O)(=O)Nc1cc(-c2cn(C)c(=O)c3[nH]ccc23)c(Oc2ccc(F)cc2F)cc1CNCCO` [Example 13, N-[4-(2,4-difluorophenoxy)-2-{[(2-hydroxyethyl)amino]methyl}-5-(6-methyl-7-oxo-6,7-dihydro-1H-pyrrolo[2,3-c]pyridin-4-yl)phenyl]ethanesulfonamide], for which the figures for the Ki on BRD4 (BDI_K57-E168) and at BRD4 (BDII_E352-M457) were 42 nM and 7.4 nM, respectively.
Turning to `CCS(=O)(=O)Nc1cc(-c2cn(C)c(=O)c3[nH]ccc23)c(Oc2ccc(F)cc2F)cc1CN1CCCC1c1ccccc1` (stereo not drawn) [Example 14, N-{4-(2,4-difluorophenoxy)-5-(6-methyl-7-oxo-6,7-dihydro-1H-pyrrolo[2,3-c]pyridin-4-yl)-2-[(2-phenylpyrrolidin-1-yl)methyl]phenyl}ethanesulfonamide], the Ki on BRD4 (BDI_K57-E168) was determined as 71 nM; on BRD4 (BDII_E352-M457) it was 14 nM.
On to `CCS(=O)(=O)Nc1cc(-c2cn(C)c(=O)c3[nH]ccc23)c(Oc2ccc(F)cc2F)c(C2CC2)c1` [Example 15, N-[3-cyclopropyl-4-(2,4-difluorophenoxy)-5-(6-methyl-7-oxo-6,7-dihydro-1H-pyrrolo[2,3-c]pyridin-4-yl)phenyl]ethanesulfonamide], for which the inhibitory constant (Ki) on BRD4 (BDI_K57-E168) came to 4.6 nM; on BRD4 (BDII_E352-M457) it was 2.6 nM.
As to `CCS(=O)(=O)c1ccc(OCC2CC2(F)F)c(-c2cn(C)c(=O)c3[nH]c(CN4CCN(c5ccncc5)CC4)cc23)c1` (stereo not drawn) [Example 16, 4-{2-[(2,2-difluorocyclopropyl)methoxy]-5-(ethylsulfonyl)phenyl}-6-methyl-2-{[4-(pyridin-4-yl)piperazin-1-yl]methyl}-1,6-dihydro-7H-pyrrolo[2,3-c]pyridin-7-one], the Ki is 2.5 nM on BRD4 (BDI_K57-E168) and 30 nM at BRD4 (BDII_E352-M457).
As to `CCS(=O)(=O)c1ccc(OCC2CC2(F)F)c(-c2cn(C)c(=O)c3[nH]c(CN4CCN(c5nccs5)CC4)cc23)c1` (stereo not drawn) [Example 17, 4-{2-[(2,2-difluorocyclopropyl)methoxy]-5-(ethylsulfonyl)phenyl}-6-methyl-2-{[4-(1,3-thiazol-2-yl)piperazin-1-yl]methyl}-1,6-dihydro-7H-pyrrolo[2,3-c]pyridin-7-one], the Ki was 4.4 nM at BRD4 (BDI_K57-E168) and 60 nM on BRD4 (BDII_E352-M457).
Take `CCS(=O)(=O)c1ccc(OCC2CC2(F)F)c(-c2cn(C)c(=O)c3[nH]c(CN4CCN(c5cnccn5)CC4)cc23)c1` (stereo not drawn) [Example 18, 4-{2-[(2,2-difluorocyclopropyl)methoxy]-5-(ethylsulfonyl)phenyl}-6-methyl-2-{[4-(pyrazin-2-yl)piperazin-1-yl]methyl}-1,6-dihydro-7H-pyrrolo[2,3-c]pyridin-7-one]: the Ki came out at 4.4 nM on BRD4 (BDI_K57-E168) and 48 nM at BRD4 (BDII_E352-M457).
The matching figures for `CCS(=O)(=O)c1ccc(OCC2CC2(F)F)c(-c2cn(C)c(=O)c3[nH]c(CN4CCN(c5cccnc5)CC4)cc23)c1` (stereo not drawn) [Example 20, 4-{2-[(2,2-difluorocyclopropyl)methoxy]-5-(ethylsulfonyl)phenyl}-6-methyl-2-{[4-(pyridin-3-yl)piperazin-1-yl]methyl}-1,6-dihydro-7H-pyrrolo[2,3-c]pyridin-7-one]: 4.9 nM and 48 nM.
Regarding `Cn1cc(-c2cc(S(C)(=O)=O)ccc2Oc2cccc(C(=O)NC3CC3)c2)c2cc[nH]c2c1=O` [Example 21, N-cyclopropyl-3-[2-(6-methyl-7-oxo-6,7-dihydro-1H-pyrrolo[2,3-c]pyridin-4-yl)-4-(methylsulfonyl)phenoxy]benzamide], the values for the inhibition constant Ki at BRD4 (BDI_K57-E168) and on BRD4 (BDII_E352-M457) were 33 nM and 10 nM, respectively.
The matching figures for `Cn1cc(-c2cc(S(C)(=O)=O)ccc2Oc2cccc(C(=O)N3CCC(N4CCCC4)CC3)c2)c2cc[nH]c2c1=O` [Example 24, 6-methyl-4-[5-(methylsulfonyl)-2-(3-{[4-(pyrrolidin-1-yl)piperidin-1-yl]carbonyl}phenoxy)phenyl]-1,6-dihydro-7H-pyrrolo[2,3-c]pyridin-7-one]: 15 nM and 12 nM.
For `Cn1cc(-c2cc(S(C)(=O)=O)ccc2Oc2cccc(C(=O)NC3CCCCC3)c2)c2cc[nH]c2c1=O` [Example 25, N-cyclohexyl-3-[2-(6-methyl-7-oxo-6,7-dihydro-1H-pyrrolo[2,3-c]pyridin-4-yl)-4-(methylsulfonyl)phenoxy]benzamide], the Ki at BRD4 (BDI_K57-E168) turned out to be 19 nM; at BRD4 (BDII_E352-M457), 6.1 nM.

The values above are taken from US9957263B2, “Bromodomain inhibitors” (AbbVie Inc., priority 2013, dated 2018).
